Laboratory results as given in US20020177592A1, “Combination of adrenergic agonist and tricyclo-alkylamine for relieving chronic pain without adverse side effects” (priority 1998, published 2002).
Read-outs that look alike come from different tables or passages of the source.

Key:
NMDA receptors [1] = conditions: concentration giving complete protection of neurons against 200 μM NMA, cell culture; cited from earlier work
NMDA receptors [2] = conditions: concentration suppressing MK-801 binding by 50%, cited from earlier work
[3] = system: rats with sciatic nerve ligation; assay: Sciatic nerve ligation model of neuropathic pain, paw lifting latency to thermal stimulus; assay type: in vivo, rat
Text: In all experiments, one hind limb of the rat has undergone a surgical operation in which a loop (“ligature”) of suture material was placed around the sciatic nerve and gently tightened. Over the course of several days, this caused chronic irritation to the nerve, driving it into a “hyper-sensitized” condition of the type which occurs in damaged neuronal circuits that cause neuropathic pain in humans.
After the nerve ligation operation, a waiting period of 8 days elapsed, to allow the ligated limb to reach a peak of hypersensitized chronic irritation of the ligated sciatic nerve. This sciatic nerve model was first described by Bennet and Xie 1988, and is widely regarded as a useful animal model for studying neuropathic pain.
To test the degree of sensitivity in the ligated limb vs. the unoperated limb, a beam of light (thermal stimulus) is applied to the soles (i.e., the undersurface area which is not covered by fur) of the hind paws, by shining a focused beam of light onto the sole, through the glass floor of a testing chamber. This beam was sufficiently hot to generate some discomfort, without posing any risk of burning the paw. The number of seconds that elapsed after commencement of the thermal stimulus, until the rat lifted up the paw, were detected electronically and recorded automatically.
Each limb is tested initially for thermal pain sensitivity, before the ligation operation is performed (pre-surgery), to ensure that both limbs had the same degree of pain sensitivity. After 8 days following surgery, each limb was tested again, before any treatment was given (pre-treatment), to ensure that the nerve ligature successfully provoked a hyper-irritable condition in the ligated limb. After drug treatment (at time=0, on the graphs), each limb was tested for thermal pain sensitivity at hourly intervals, for 4 hours.
The first set of in vivo tests involved sciatic nerve ligation in rats, using procedures described in Bennett and Xie, Pain 33: 87-107 (1988). This test involves surgically placing and tightening a loop of suture material around the sciatic nerve in one hind leg of a rat; the other hind leg serves as a control. Within about a week, the ligated sciatic nerve becomes irritated and reaches a hyper-responsive “kindled” state, where it will respond rapidly to even a mild stimulus that is not painful to an untampered leg. As such, it offers a model of what happens in pain pathways that have become pathologically hypersensitized in a human suffering from neuropathic pain.
In these tests, on the 8th day after surgery, the rat is placed in a testing device which electronically measures how quickly or slowly it acts, in lifting up a paw in response to a standardized mild warming (thermal) stimulus. The warming stimulus is generated by a light beam which shines onto the bottom surface of the paw, through the glass floor of the testing enclosure. The device is electronically controlled and automated, and measurements are made of the number of seconds that elapse after the light beam begins to shine on the bottom of the paw, until the rat lifts its paw.
To establish baseline values for pain sensitivity of each limb in each group of animals, each limb was tested initially for thermal pain sensitivity before the ligation operation was performed (pre-surgery). After 8 days, each limb was again tested before any drug treatment was administered (shown by the “pre-treatment” legend in all graphs). After drug administration, each limb was tested for thermal pain sensitivity at hourly intervals, for 4 hours.
Saline controls and all drugs were administered by intraperitoneal (IP) injection, i.e., hypodermic injection into the abdominal region. This is a convenient and reliable method of drug administration, for tests involving rats.
The test results are shown graphically in the Figures; each circle indicates the mean value, and the vertical bars show the standard error of the mean (SEM). […]

rats [4] = assay: Sensorimotor battery (plank, walking initiation, platform, inclined screen, activity); assay type: in vivo, rat; conditions: treatment regimens that proved effective for relieving neuropathic pain; 1 hour post-treatment
Procedure: Testing was done at 1 hour post-treatment, which corresponded with the time of peak effect of drugs on paw withdrawal latency. Briefly, the sensorimotor battery consisted of five tests (Wozniak et al 1990) that are known to be able to detect significant muscle weakness, incoordination, somnolence, or other behavioral impairments.
For all of the tests in this sensorimotor battery, all treatment groups first received a habituation trial, to allow each rat to acclimate to the test situation. In all tests, protective padding was placed under any elevated apparatuses, to prevent pain or injury from falling. The tests performed were as follows:
A rat was timed for how long it could remain on a wooden plank that is 3 cm wide, elevated 61 cm above the floor.
Each rat was placed in the middle of a square outlined by white cloth tape (50×50 cm) on a smooth black surface of a large table top, and was timed for how long was required for the rat to leave the square (place all four paws outside the square).
Each rat was timed for how long it could remain perched on an elevated (61 cm above the floor) platform of small dimensions (7.6×15.2 cm).
Each rat was placed in the middle of an elevated (61 cm above the floor) wire mesh grid (8 squares per 10 cm) which was inclined at 60 degrees with the floor. […]

rats [5] = conditions: from 0.5 hr after treatment for 1 hr
Procedure: To address these issues, rats with sciatic nerve ligations, and rats with only sham sciatic nerve ligations, were treated with various doses of ethopropazine, clonidine, or the two agents together. They were then evaluated, using the following battery of sensorimotor and activity tests:
(5) One Hour Activity Level.
Locomotor activity was evaluated beginning at 0.5 hr following drug treatment, and lasting for 1 hr. In this test, the rat was placed in a cage equipped with three pairs of photoelectric cells, placed at regular intervals across the width of the cage, so that the animal's activity was monitored by automatically recording the number of “beam breaks” registered as the animal moved about the cage.

NMDA receptors [6] = assay: Protection of neurons in cell culture against 200 μM NMA (Olney et al 1987); assay type: cell-based; conditions: ratio of protective concentrations
Procedure: In Table 1, the “protective concentration” for each compound was the micromolar concentration of that compound which provided complete protection for neurons, in cell culture tests, against a 200 μM concentration of NMA (i.e., a racemic mixture of the D and L stereoisomers of N-methyl-aspartate; the D isomer, which makes up 50% of the racemic mixture, is highly toxic to neurons, while the L isomer is somewhat less toxic).

[7] = clonidine alone, IP, 0.075 mg/kg

OC(CCN1CCCCC1)(c1ccccc1)C1CC2C=CC1C2 (centres unmarked) [Biperiden]
Protective concentration (NMDA receptors [1]): 200 µM

CN(C)CCCN1c2ccccc2Sc2ccc(Cl)cc21 [Chlorpromazine]
IC50 (NMDA receptors [2]): 45.9 ± 11.5 µM

CNCCCN1c2ccccc2CCc2ccccc21 [Desipramine]
IC50 (NMDA receptors [2]): 7.41 ± 1.32 µM

CN(C)CCOC(c1ccccc1)c1ccccc1 [Diphenhydramine]
Protective concentration (NMDA receptors [1]): 250 µM

CCN(CC)C(C)CN1c2ccccc2Sc2ccccc21 (centres unmarked) [Ethopropazine]
paw lifting latency curves of ligated and control limbs ([3]; ethopropazine alone, FIGS. 2B and 2C (20 and 30 mg/kg), 2 and 3 hour testing times): both curves rose, substantially
pain sensitivity (paw lifting latency) ([3]; ethopropazine alone, IP, 50 mg/kg, FIG. 2D): significantly changed the level of pain sensitivity in the ligated limb
pain sensitivity (paw lifting latency) ([3]; ethopropazine alone, IP, 10 to 30 mg/kg, FIG. 2): did not significantly change the pain sensitivity in either limb
performance on sensorimotor tests (rats [4]): None of the ethopropazine or combined ethopropazine-plus-clonidine treatment regimens that proved effective for relieving neuropathic pain was associated with any impaired performance
activity level (rats [5]; ethopropazine alone, 50 mg/kg): significantly reduced activity level
Protective concentration (NMDA receptors [1]): 25 µM

CNC1(c2ccccc2Cl)CCCCC1=O (centres unmarked) [Ketamine]
potency relative to ethopropazine (times more potent) (NMDA receptors [6]): 5 times
potency relative to procyclidine (times more potent) (NMDA receptors [6]): 3 times
Protective concentration (NMDA receptors [1]): 5 µM
IC50 (NMDA receptors [2]; comparator in text): 1.02 ± 0.33 µM

CNCCC=C1c2ccccc2CCc2ccccc21 [Nortriptyline]
IC50 (NMDA receptors [2]): 21 ± 0.67 µM

OC(CCN1CCCC1)(c1ccccc1)C1CCCCC1 (centres unmarked) [Procyclidine]
Protective concentration (NMDA receptors [1]): 15 µM

CN1[C@@H]2C[C@@H](OC(=O)[C@H](CO)c3ccccc3)C[C@H]1[C@@H]1O[C@@H]12 [Scopolamine]
Protective concentration (NMDA receptors [1]): >3000 µM

OC(CCN1CCCCC1)(c1ccccc1)C1CCCCC1 (centres unmarked) [Trihexyphenidyl]
Protective concentration (NMDA receptors [1]): 125 µM

Clc1cccc(Cl)c1N=C1NCCN1 [clonidine]
relief of neuropathic pain ([3]; clonidine alone, IP, 0.025 mg/kg and 0.05 mg/kg): no significant relief of neuropathic pain
relief of neuropathic pain [3, 7]: significant and relatively sustained neuropathic pain relief
sedation observed [3, 7]: significant sedation
activity level (rats [5]; clonidine alone, 0.050 mg/kg): reduce activity levels, but only slightly and to a barely significant degree
activity level (rats [5]; clonidine alone, 0.075 mg/kg): substantially reduced activity levels

c1ccc(C2(N3CCCCC3)CCCCC2)cc1 [phencyclidine]
potency relative to ethopropazine (times more potent) (NMDA receptors [6]): 50 times
potency relative to procyclidine (times more potent) (NMDA receptors [6]): 30 times
Protective concentration (NMDA receptors [1]): 0.5 µM
